Like-named read-outs stand apart in the source and are kept apart here.
Key:
[1] = system: VCaP cells; experiment: VCaP cell proliferation assay (Cell Titer Glo), GI50; type: cell-based; conditions: Homo sapiens; VCaP cells, 0.1 nM R1881; Table 37; read-out: GI50, Inhibition of VCaP Proliferation
Protocol: 2. VCaP Cell Proliferation Assay.
VCaP cells are plated 7,500/well 200 μL/well in VCaP assay medium [Phenol red free RPMI (Gibco Cat #11835-030); 5% Charcoal Stripped (Dextran treated) FBS (Omega Scientific, Cat #FB-04); Pen/Strep Life Technologies (Gibco Cat #: 10378-016); 0.1 nM R1881 (Sigma, Cat #R0908) is added upon the start of the assay, not during initial plating of the cells).
The assay was performed as follows: the cells are grown for a minimum of 3 days to deplete androgens; dosing of PROTACs and R1881 is performed as for AR ELISA; the baseline reading of Cell Titer Glo can be performed on day of dosing.
VCaP cells with 0.1 nM R1881 will double once in 4 days. Gently draw off 110 μL of media so as not to disturb the adherent cells; add 110 μL of CTG; incubate with slow shaking for 20 minutes; and read luminescence on a plate reader.

[2] = target: T1, Androgen Receptor (Homo sapiens, UniProt P10275); experiment: Androgen Receptor ELISA assay (PathScan AR ELISA) in VCaP cells: AR degradation, Dmax and DC50; type: cell-based
T1 construct: endogenous in cells; host or cells: VCaP cells
T1 sequence (P10275 1-920): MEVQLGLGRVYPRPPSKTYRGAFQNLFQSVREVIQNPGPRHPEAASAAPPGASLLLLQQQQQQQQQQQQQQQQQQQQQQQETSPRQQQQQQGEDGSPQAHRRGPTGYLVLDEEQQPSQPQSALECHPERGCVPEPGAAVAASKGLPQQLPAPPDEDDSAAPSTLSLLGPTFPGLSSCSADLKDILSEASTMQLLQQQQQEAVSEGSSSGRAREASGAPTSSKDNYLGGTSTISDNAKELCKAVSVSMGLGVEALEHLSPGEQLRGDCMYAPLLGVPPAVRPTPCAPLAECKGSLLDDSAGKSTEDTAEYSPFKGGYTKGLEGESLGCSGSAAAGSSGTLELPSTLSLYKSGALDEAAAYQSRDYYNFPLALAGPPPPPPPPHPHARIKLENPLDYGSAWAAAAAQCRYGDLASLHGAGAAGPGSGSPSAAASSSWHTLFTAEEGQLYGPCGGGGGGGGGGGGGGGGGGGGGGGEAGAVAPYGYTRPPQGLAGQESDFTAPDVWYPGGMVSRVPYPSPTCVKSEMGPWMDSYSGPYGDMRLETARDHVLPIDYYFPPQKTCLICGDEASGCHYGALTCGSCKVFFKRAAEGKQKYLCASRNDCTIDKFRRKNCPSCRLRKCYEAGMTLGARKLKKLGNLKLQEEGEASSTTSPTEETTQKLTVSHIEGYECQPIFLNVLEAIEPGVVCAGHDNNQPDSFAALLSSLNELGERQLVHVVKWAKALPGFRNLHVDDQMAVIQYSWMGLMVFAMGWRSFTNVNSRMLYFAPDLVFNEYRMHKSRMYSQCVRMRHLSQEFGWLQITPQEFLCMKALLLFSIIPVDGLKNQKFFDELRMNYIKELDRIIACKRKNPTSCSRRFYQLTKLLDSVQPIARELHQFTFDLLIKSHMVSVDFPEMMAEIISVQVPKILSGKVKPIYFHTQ
Method in brief: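 After 24 h exposure of VCaP cells (charcoal-stripped serum, 0.1 nM R1881 agonist, 0.1% DMSO) to seven half-log compound concentrations, residual AR in lysates was measured by PathScan ELISA (TMB absorbance, 450 nm). Cells were plated at 30,000/well and grown at least 3 days beforehand.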

[3] = VCaP cells; concentration that caused 50% Androgen Receptor degradation; read-out: VCaP DC50
[4] = VCaP, VCaP cells; highest percentage of Androgen Receptor degradation; read-out: VCaP Dmax (%)
[5] = read-out: VCaP DC50; VCaP cells; concentration that caused 50% Androgen Receptor degradation

Cc1ncsc1-c1ccc(CNC(=O)[C@@H]2C[C@@H](O)CN2C(=O)[C@@H](NC(=O)COCCCCOc2ccc(-c3ccc(N4C(=S)N(c5cnc(C#N)c(C(F)(F)F)c5)C(=O)C4(C)C)c(F)c3)cc2)C(C)(C)C)cc1 [Example 197, (2S,4R)-1-[(2S)-2-(2-{4-[4-(4-{3-[6-cyano-5-(trifluoromethyl)pyridin-3-yl]-5,5-dimethyl-4-oxo-2-sulfanylideneimidazolidin-1-yl}-3-fluorophenyl)phenoxy]butoxy}acetamido)-3,3-dimethylbutanoyl]-4-hydroxy-N-{[4-(4-methyl-1,3-thiazol-5-yl)phenyl]methyl}pyrrolidine-2-carboxamide]
GI50 [1]: 51 to 250 nM | DC50 [2, 3]: < 50 nM | Dmax [2, 4]: > 71%

CC(C)(C)[C@H](NC(=O)COCCCCOc1ccc(C(=O)N[C@H]2C(C)(C)[C@H](Oc3ccc(C#N)c(Cl)c3)C2(C)C)cc1)C(=O)N1C[C@H](O)C[C@H]1C(=O)NCc1ccc(Cl)cc1 [Example 169, (2S,4R)-N-[(4-chlorophenyl)methyl]-1-[(2S)-3,3-dimethyl-2-{2-[4-(4-{[trans-3-(3-chloro-4-cyanophenoxy)-2,2,4,4-tetramethylcyclobutyl]carbamoyl}phenoxy)butoxy]acetamido}butanoyl]-4-hydroxypyrrolidine-2-carboxamide]
GI50 [1]: 51 to 250 nM | Dmax ([2]; VCaP, highest percentage of Androgen Receptor degradation observed, VCaP cells (Table 32); read-out: VCaP Dmax (%)): 51 to 70% | DC50 ([2]; concentration that caused 50% Androgen Receptor degradation, VCaP cells (Table 32); read-out: VCaP DC50): < 50 nM

Cc1ncsc1-c1ccc([C@H](C)NC(=O)[C@@H]2C[C@@H](O)CN2C(=O)[C@@H](NC(=O)COCC2CC3(C2)CC(COc2ccc(N4C(=S)N(c5ccc(C#N)c(C(F)(F)F)c5)C(=O)C4(C)C)cc2)C3)C(C)(C)C)cc1 (stereo partly drawn) [Example 202, (2S,4R)-1-[(2S)-2-[2-({6-[(4-{3-[4-cyano-3-(trifluoromethyl)phenyl]-5,5-dimethyl-4-oxo-2-sulfanylideneimidazolidin-1-yl}phenoxy)methyl]spiro[3.3]heptan-2-yl}methoxy)acetamido]-3,3-dimethylbutanoyl]-4-hydroxy-N-[(1S)-1-[4-(4-methyl-1,3-thiazol-5-yl)phenyl]ethyl] pyrrolidine-2-carboxamide]
GI50 [1]: 51 to 250 nM | Dmax ([2]; VCaP, read-out: VCaP Dmax (%)): > 71% | DC50 [2, 5]: < 50 nM

Cc1ncsc1-c1ccc(CNC(=O)[C@@H]2C[C@@H](O)CN2C(=O)[C@@H](NC(=O)COCC2CC3(C2)CC(COc2ccc(N4C(=S)N(c5ccc(C#N)c(C(F)(F)F)c5)C(=O)C4(C)C)cc2)C3)C(C)(C)C)cc1 (stereo partly drawn) [Example 201, (2S,4R)-1-[(2S)-2-[2-({6-[(4-{3-[4-cyano-3-(trifluoromethyl)phenyl]-5,5-dimethyl-4-oxo-2-sulfanylideneimidazolidin-1-yl}phenoxy)methyl]spiro[3.3]heptan-2-yl}methoxy)acetamido]-3,3-dimethylbutanoyl]-4-hydroxy-N-{[4-(4-methyl-1,3-thiazol-5-yl)phenyl]methyl} pyrrolidine-2-carboxamide]
GI50 [1]: 51 to 250 nM | Dmax ([2]; VCaP, read-out: VCaP Dmax (%)): > 71% | DC50 [2, 5]: < 50 nM

Cc1ncsc1-c1ccc(CNC(=O)[C@@H]2C[C@@H](O)CN2C(=O)[C@@H](NC(=O)COCCNc2ccc(-c3ccc(C(=O)NC4C(C)(C)C(Oc5ccc(C#N)c(Cl)c5)C4(C)C)cc3)cc2)C(C)(C)C)cc1 (stereo partly drawn) [Example 204, (2S,4R)-1-[(2S)-2-[2-(2-{[4-(4-{[3-(3-chloro-4-cyanophenoxy)-2,2,4,4-tetramethylcyclobutyl]carbamoyl}phenyl)phenyl]amino}ethoxy)acetamido]-3,3-dimethylbutanoyl]-4-hydroxy-N-{[4-(4-methyl-1,3-thiazol-5-yl)phenyl]methyl}pyrrolidine-2-carboxamide]
GI50 [1]: ≤ 50 nM | DC50 [2, 3]: < 50 nM | Dmax [2, 4]: > 71%
